Data set [1] concerns the target purified recombinant LSD1 (Homo sapiens, UniProt O60341). Briefly: Fluorescence-based recombinant LSD1 inhibition assay. The class given is biochemical. The note with it: residual activity at 10 μM; average of 3 determinations ± SEM; Table 2.
Another data set relates to CA46 Burkitt's lymphoma. Briefly: Cytotoxicity in CA46. Type of data set: cell-based.
Data set [2] concerns MCF-10A human breast epithelial cell line. Put plainly: Cytotoxicity in MCF-10A. The class given is cell-based.

Turning to `N=C(NCCCNCCCCCCCNCCCNC(=N)NC(=N)NCCC(c1ccccc1)c1ccccc1)NC(=N)NCCC(c1ccccc1)c1ccccc1` [Compound 2, verlindamycin], the “% LSD1 Activity (10μM)” value in data set [1] is 33.9 ± 6.7%.

`COc1ccccc1CNc1n[nH]c(NCc2ccccc2OC)n1` [Compound 7, N^3,N[5]-bis(2-methoxybenzyl)-1H-1,2,4-triazole-3,5-diamine]: the “Cytotoxicity in CA46” value in the data set on CA46 Burkitt's lymphoma is reported as “no significant cytotoxicity”. Moreover, the “Cytotoxicity in MCF-10A” value in data set [2] was “no significant cytotoxicity”.

The values above are taken from publication PMC4286191 (MedChemComm, 2014).
